{
  "source": "patent US20060057669A1",
  "about": "“Inactive transcription factor tif-ia and uses thereof” (priority 2002, published 2006)",
  "key": {"HEK293T cells": {"tested_on": "HEK293T cells", "assay": "Quantitative fluorimetric viability assay with calcein-AM", "assay_type": "cell-based", "conditions": "24, 36, 48 and 60 hr after transfection; 2 μM calcein-AM"}, "Pol I transcription": {"tested_on": "Pol I transcription", "assay": "In vitro transcription: TIF-IA mutants added to nuclear extract from exponentially growing FM3A cells", "assay_type": "biochemical, murine", "conditions": "20 and 40 ng added to 15 ug nuclear extract"}},
  "data": [
    {"substance": "TIF-IA: wild-type human transcription initiation factor TIF-IA, accession No. AJ272050", "values": [
      {"measurement": "cellular growth rate by calcein-AM staining", "setting": "HEK293T cells", "result": "did not affect cell viability and growth"},
      {"measurement": "effect on transcriptional activity of extracts from exponentially growing cells", "setting": "Pol I transcription", "result": "not stimulated by exogenous TIF-IA"}
    ]}
  ]
}
